Measurements reported in patent publication US9328085B2, “Heterocyclic compounds and expansion agents for hematopoietic stem cells” (NISSAN CHEMICAL INDUSTRIES, LTD., priority 2009, dated 2016).

How the values were obtained:
[1] = test system: CD34^+CD38^− cells; test: Expansion of CD34+CD38- cells using human cord blood-derived CD34+ cells (Assay Example 1); type: cell-based; details: for Expansion efficiency (CD34^+CD38^− cells): 100 ng/mL SCF, 7 days, based on the number of CD34^+CD38^− cells in the absence of compound; for Comparison with TPO: CD34^+CD38^− cells
Method: (§1) Human cord blood-derived CD34^+ cells were purchased from Lonza and plated on a 24-well plate (Corning) (10000 cells/1 mL/well). As the culture medium, StemSpan SFEM (StemCell Technologies) containing 100 ng/mL SCF (Wako Pure Chemical Industries) was used, and one of Compounds No. 1 to 72 dissolved in dimethyl sulfoxide was added in an amount of 0.1% (v/v) to a final concentration of 1 or 3 μg/mL. As a positive control, TPO (PeproTech) was used at a final concentration of 10 ng/mL.
(§2) After the cells were incubated in liquid culture at 37° C. for 7 days in a CO2 incubator (5% CO2), the number of viable cells was counted by trypan blue assay. The number of CD34^+CD38^− cells was calculated as follows. After the incubation, the cells in the liquid culture was stained with a CD34 antibody (APC, Becton, Dickinson and Company) and a CD38 antibody (PE, Becton, Dickinson and Company), then washed with PBS(−) containing 2% (v/v) FBS and stained with propidium iodide (Sigma-Aldrich Japan) added to a final concentration of 5 μg/mL. The stained cells were analyzed with a BD FACSCANTO™ II flow cytometer (Becton, Dickinson and Company) to determined the proportions of CD34^+ cells and CD34^+CD38^− cells, which was multiplied by the number of viable cells to calculate the numbers of CD34^+ cells and CD34^+CD38^− cells.
(§3) The expansion efficiencies in the presence of 1 or 3 μg/mL of compounds based on the number of CD34^+ cells in the absence of them are shown in Tables 3-1 and 3-2 on a scale of A for expansion efficiencies of 6 or greater, B for expansion efficiencies of at least 4 and less than 6, and C for expansion efficiencies of at least 2 and less than 4. The expansion efficiencies in the presence of 1 or 3 μg/mL of compounds based on the number of CD34^+CD38^− cells in the absence of them are shown in Tables 4-1 and 4-2 on a scale of A for expansion efficiencies of 10 or greater, B for expansion efficiencies of at least 5 and less than 10, and C for expansion efficiencies of at least 3 and less than 5. Further, in Table 3, the compounds with an expansion efficiency twice or more greater than that of TPO are marked with O.

[2] = test system: CD34^+ cells; test: Expansion of CD34+ cells using human cord blood-derived CD34+ cells (Assay Example 1); type: cell-based; details: 100 ng/mL SCF, 7 days, based on the number of CD34^+ cells in the absence of compound
Method: as §1, §2, §3

[3] = 3 μg/mL compound vs TPO 10 ng/mL
[4] = 1 μg/mL compound vs TPO 10 ng/mL

Compound	Expansion efficiency (CD34^+CD38^− cells) ([1]; 3 μg/mL compound)	Expansion efficiency (CD34^+ cells) ([2]; 3 μg/mL compound)	Comparison with TPO [1, 3]	Expansion efficiency (CD34^+ cells) ([2]; 1 μg/mL compound)	Comparison with TPO [1, 4]	Expansion efficiency (CD34^+CD38^− cells) ([1]; 1 μg/mL compound)
CC(=NNC(=O)c1cccc(C(=O)NCc2ccc(C(=O)NCCOCCO)cc2)n1)c1csc(-c2ccc(C(C)(C)C)cc2)c1O [compound 50]	C (C for expansion efficiencies of at least 3 and less than 5)	–	–	–	–	–
CC(=NNC(=O)c1ccc(C(=O)NCc2ccc(S(=O)(=O)NCCOCCO)cc2)s1)c1csc(-c2ccc(Br)cc2)c1O [compound 3]	A (A for expansion efficiencies of 10 or greater)	C (C for expansion efficiencies of at least 2 and less than 4)	–	–	–	–
CC(=NNC(=O)c1ccc(C(=O)NCc2ccc(C(=O)NCCN3CCNCC3)cc2)s1)c1csc(-c2ccc(C(C)(C)C)cc2)c1O [compound 29]	A (A for expansion efficiencies of 10 or greater)	A (A for expansion efficiencies of 6 or greater)	∘	–	–	–
CC(=NNC(=O)c1ccc(C(=O)NCc2ccc(CC(N)=O)cc2)s1)c1csc(-c2ccc(C(C)(C)C)cc2)c1O [compound 67]	–	–	–	B (B for expansion efficiencies of at least 4 and less than 6)	∘	A (A for expansion efficiencies of 10 or greater)
COc1ccc(-c2scc(C(C)=NNC(=O)c3ccc(C(=O)NCc4ccc(CNC(C)=O)cc4)s3)c2O)cc1 [compound 58]	–	–	–	B (B for expansion efficiencies of at least 4 and less than 6)	–	A (A for expansion efficiencies of 10 or greater)
CC(=NNC(=O)c1ccc(C(=O)NCc2ccc(C(=O)NCCOCCO)cc2)cc1)c1csc(-c2ccc(C(C)(C)C)cc2)c1O [compound 44]	A (A for expansion efficiencies of 10 or greater)	C (C for expansion efficiencies of at least 2 and less than 4)	–	–	–	–
CC(=NNC(=O)c1ccc(C(=O)NCc2ccc(CC(N)=O)cc2)s1)c1csc(-c2ccc(C(F)(F)F)cc2)c1O [compound 69]	A (A for expansion efficiencies of 10 or greater)	A (A for expansion efficiencies of 6 or greater)	–	–	–	–
CC(=NNC(=O)c1ccc(C(=O)NCc2ccc(C(=O)NCCO)cc2)s1)c1csc(-c2ccc(Br)cc2)c1O [compound 15]	A (A for expansion efficiencies of 10 or greater)	A (A for expansion efficiencies of 6 or greater)	∘	–	–	–
CC(=NNC(=O)c1ccc(C(=O)NCc2ccc(C(=O)NCC3CCCO3)cc2)s1)c1csc(-c2ccc(C(C)(C)C)cc2)c1O (stereo not drawn) [compound 11]	A (A for expansion efficiencies of 10 or greater)	A (A for expansion efficiencies of 6 or greater)	–	–	–	–
CC(=NNC(=O)c1ccc(C(=O)NCc2ccc(C(=O)NCc3ccccn3)cc2)s1)c1csc(-c2ccc(Cl)c(Cl)c2)c1O [compound 4]	B (B for expansion efficiencies of at least 5 and less than 10)	C (C for expansion efficiencies of at least 2 and less than 4)	–	–	–	–
CC(=NNC(=O)c1ccc(C(=O)NCc2ccc(C(=O)NCCN(CCO)CCO)cc2)s1)c1csc(-c2ccc(Cl)c(Cl)c2)c1O [compound 22]	A (A for expansion efficiencies of 10 or greater)	A (A for expansion efficiencies of 6 or greater)	∘	–	–	–
CC(=NNC(=O)c1ccc(C(=O)NCc2ccc(C(=O)NCCN(CCO)CCO)cc2)s1)c1csc(-c2ccc(C(C)(C)C)cc2)c1O [compound 23]	A (A for expansion efficiencies of 10 or greater)	A (A for expansion efficiencies of 6 or greater)	∘	–	–	–
COCCOCCNC(=O)c1ccc(CNC(=O)c2ccc(C(=O)NN=C(C)c3csc(-c4ccc(Cl)c(Cl)c4)c3O)s2)cc1 [compound 31]	A (A for expansion efficiencies of 10 or greater)	C (C for expansion efficiencies of at least 2 and less than 4)	–	–	–	–
CCCCCCOCCOCCNC(=O)c1ccc(CNC(=O)c2ccc(C(=O)NN=C(C)c3csc(-c4ccc(C(C)(C)C)cc4)c3O)s2)cc1 [compound 38]	A (A for expansion efficiencies of 10 or greater)	C (C for expansion efficiencies of at least 2 and less than 4)	–	–	–	–
CC(=NNC(=O)c1ccc(C(=O)NCc2ccc(CC(N)=O)cc2)s1)c1csc(-c2ccc(Br)cc2)c1O [compound 68]	A (A for expansion efficiencies of 10 or greater)	A (A for expansion efficiencies of 6 or greater)	∘	–	–	–
CCCCCCOCCOCCNC(=O)c1ccc(CNC(=O)c2ccc(C(=O)NN=C(C)c3csc(-c4ccc(Cl)c(Cl)c4)c3O)s2)cc1 [compound 37]	A (A for expansion efficiencies of 10 or greater)	C (C for expansion efficiencies of at least 2 and less than 4)	–	–	–	–
CC(=NNC(=O)c1ccc(C(=O)NCc2ccc(C(=O)NCCO)cc2)s1)c1csc(-c2ccc(Cl)c(Cl)c2)c1O [compound 13]	A (A for expansion efficiencies of 10 or greater)	A (A for expansion efficiencies of 6 or greater)	∘	–	–	–
CC(=NNC(=O)c1ccc(C(=O)NCc2ccc(C(=O)NCCOCCO)cc2)s1)c1csc(-c2ccc(C(F)(F)F)cc2)c1O [compound 62]	A (A for expansion efficiencies of 10 or greater)	A (A for expansion efficiencies of 6 or greater)	∘	–	–	–
CC(=NNC(=O)c1ccc(C(=O)NCc2ccc(S(=O)(=O)NCCOCCO)cc2)s1)c1csc(-c2ccc(C(C)(C)C)cc2)c1O [compound 2]	A (A for expansion efficiencies of 10 or greater)	B (B for expansion efficiencies of at least 4 and less than 6)	–	–	–	–
CC(=NNC(=O)c1ccc(C(=O)NCc2ccc(C(=O)NCCN3CCOCC3)cc2)s1)c1csc(-c2ccc(C(C)(C)C)cc2)c1O [compound 20]	A (A for expansion efficiencies of 10 or greater)	B (B for expansion efficiencies of at least 4 and less than 6)	∘	–	–	–
CC(=NNC(=O)c1ccc(C(=O)NCc2ccc(C(=O)NCCOCCO)cc2)s1)c1csc(-c2ccc(OC(F)(F)F)cc2)c1O [compound 64]	–	–	–	A (A for expansion efficiencies of 6 or greater)	∘	A (A for expansion efficiencies of 10 or greater)
CC(=O)NCc1ccc(CNC(=O)c2ccc(C(=O)NN=C(C)c3csc(-c4ccc(Br)cc4)c3O)s2)cc1 [compound 54]	–	–	–	A (A for expansion efficiencies of 6 or greater)	–	A (A for expansion efficiencies of 10 or greater)
COCCOCCNC(=O)c1ccc(CNC(=O)c2ccc(C(=O)NN=C(C)c3csc(-c4ccc(C(C)(C)C)cc4)c3O)s2)cc1 [compound 32]	A (A for expansion efficiencies of 10 or greater)	A (A for expansion efficiencies of 6 or greater)	∘	–	–	–
CC(=NNC(=O)c1ccc(C(=O)NCc2ccc(C(=O)NCCN3CCN(C(=O)OC(C)(C)C)CC3)cc2)s1)c1csc(-c2ccc(Br)cc2)c1O [compound 27]	C (C for expansion efficiencies of at least 3 and less than 5)	–	–	–	–	–
CC(=NNC(=O)c1ccc(C(=O)NCc2ccc(C(=O)NCc3ccco3)cc2)s1)c1csc(-c2ccc(C(C)(C)C)cc2)c1O [compound 8]	B (B for expansion efficiencies of at least 5 and less than 10)	–	–	–	–	–
CC(=NNC(=O)c1ccc(C(=O)NCc2ccc(C(=O)NCc3ccccn3)cc2)s1)c1csc(-c2ccc(Br)cc2)c1O [Compound No. 6]	C (C for expansion efficiencies of at least 3 and less than 5)	–	–	–	–	–
CC(=NNC(=O)c1ccc(C(=O)NCc2ccc(C(=O)NCCOCCO)cc2)nc1)c1csc(-c2ccc(C(C)(C)C)cc2)c1O [compound 47]	B (B for expansion efficiencies of at least 5 and less than 10)	–	–	–	–	–
